From US20250171459A1, “2-METHYL-4',5'-DIHYDROSPIRO[PIPERIDINE-4,7'-THIENO[2,3-C]PYRAN] DERIVATIVES AS INHIBITORS OF APOL1 AND METHODS OF USING SAME” (Vertex Pharmaceuticals Incorporated, priority 2022, published 2025)

molecular target: T1, APOL1 (Homo sapiens, UniProt O14791); experiment: MultiTox-Fluor Multiplex Cytotoxicity Assay in tet-inducible APOL1 T-REx-HEK293 cells (cell rescue, ratio of dead to live cells); assay type: cell-based; settings: tet-inducible transgenic APOL1 T-REx-HEK293 cell lines, 50 ng/mL tet, 24 hours; read-out: IP50 (i.e., IC50 for cell proliferation)
T1 sequence (O14791 1-398 S342G/I384M): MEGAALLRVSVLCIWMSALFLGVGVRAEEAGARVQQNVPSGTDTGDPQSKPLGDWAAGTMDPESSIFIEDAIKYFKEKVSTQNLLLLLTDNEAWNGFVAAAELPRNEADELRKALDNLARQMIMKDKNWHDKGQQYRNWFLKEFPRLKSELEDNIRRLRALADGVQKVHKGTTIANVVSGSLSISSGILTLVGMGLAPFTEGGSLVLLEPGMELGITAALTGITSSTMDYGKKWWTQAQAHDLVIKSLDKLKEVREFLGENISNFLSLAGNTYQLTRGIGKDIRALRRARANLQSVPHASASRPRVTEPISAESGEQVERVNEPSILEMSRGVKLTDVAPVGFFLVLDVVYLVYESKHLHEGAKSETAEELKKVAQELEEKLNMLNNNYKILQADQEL
How it was run: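 T-REx-HEK293 cells with tet-inducible APOL1 were treated with compound (10 μM top, 10-point 3-fold dilution, duplicate) plus 50 ng/mL tetracycline for 24 h at 37° C, in DMEM with 2% tet-free FBS. MultiTox-Fluor protease signals gave a dead/live ratio, normalized to no tet (100% viability) and tet alone (0%).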

`CCc1cc2c(s1)CCO[C@@]21CCN(Cc2cnc(NCCN3CCNC3=O)nc2)[C@@H](C)C1` [Compound 221] and `CCc1cc2c(s1)CCO[C@@]21CCN(Cc2cnc(NC34CCC(CO)(C3)C4)nc2)[C@@H](C)C1` [Compound 210] cannot be ordered by IC50: under 100 nM for the first, under 100 nM for the second.

`Cc1cc2c(s1)[C@]1(CCN(Cc3cnn(CCO)c3)[C@@H](C)C1)OCC2` [Compound 1027, 2-[4-[[(2′S, 7R)-2,2′-dimethylspiro[4,5-dihydrothieno[2,3-c]pyran-7,4′-piperidine]-1′-yl]methyl]pyrazol-1-yl]ethanol] and `Cc1cc2c(s1)[C@]1(CCN(Cc3cnn(CCS(C)(=O)=O)c3)[C@@H](C)C1)OCC2` [Compound 1026] cannot be ordered by IC50: under 100 nM for the first, under 100 nM for the second.

First: CCc1cc2c(s1)CCOC21CCN(Cc2ccc(NS(C)(=O)=O)cc2)CC1 [Compound 1129]
Second: CCc1cc2c(s1)CCOC21CCN(Cc2cn(CC(C)S(C)(=O)=O)nn2)CC1 (stereo not shown) [Compound 1088]
The IC50 of the first is lower: 100 to 500 nM for the first, 500 to 1000 nM for the second.

`CCc1cc2c(s1)CCOC21CCN(Cc2cn(CC(O)c3ccccn3)nn2)C(C)C1` (stereo not shown) [Compound 76] and `CCc1cc2c(s1)CCO[C@@]21CCN(Cc2cn(Cc3cnccn3)nn2)[C@@H](C)C1` [Compound 38] fall in the same range of IC50: 100 to 500 nM for the first, 100 to 500 nM for the second.

First: CCN1CC[C@]2(C[C@@H]1C)OCCc1cc(CC(F)F)sc12 [Compound 572]
Second: C[C@H]1C[C@@]2(CCN1Cc1cnn(CCO)c1)OCCc1cc(CC(F)F)sc12 [Compound 563]
The IC50 of the first is higher: 100 to 500 nM for the first, under 100 nM for the second.

`CCc1cc2c(s1)CCO[C@@]21CCN(C[C@H]2C[C@@H](NS(=O)(=O)c3cccc(OC)c3)C2)[C@@H](C)C1` [Compound 396] and `CCc1cc2c(s1)CCO[C@@]21CCN(C[C@H]2C[C@@H](NS(=O)(=O)c3ccc(OC)cc3)C2)[C@@H](C)C1` [Compound 402] cannot be ordered by IC50: under 100 nM for the first, under 100 nM for the second.

Compared with `C[C@H]1C[C@@]2(CCN1Cc1cnn(CC3CCOCC3)c1)OCCc1cc(Cl)sc12` [Compound 706], `C[C@H]1C[C@@]2(CCN1CCC1CCOCC1)OCCc1cc(Cl)sc12` [Compound 673] is higher in IC50: under 100 nM for the first, 500 to 1000 nM for the second. The first is the more potent here.

First: CCc1cc2c(s1)CCO[C@@]21CCN(Cc2cn(CC3(C4CCOCC4)CC3)nn2)[C@@H](C)C1 [Compound 105]
Second: CCc1cc2c(s1)CCO[C@@]21CCN(Cc2cn(CC3(OCCO)CCOCC3)nn2)[C@@H](C)C1 [Compound 87]
The IC50 of the first is higher: 500 to 1000 nM for the first, 100 to 500 nM for the second.

Compared with `CCc1cc2c(s1)CCO[C@@]21CCN(Cc2cn(CCOCCOCCOCCO)nn2)[C@@H](C)C1` [Compound 197], `CCc1cc2c(s1)CCO[C@@]21CCN(Cc2cn(CC(CC)(CC)OC)nn2)[C@@H](C)C1` [Compound 97] is lower in IC50: 100 to 500 nM for the first, under 100 nM for the second. The second is the more potent here.

`CC1Cc2sc(Cl)cc2C2(CCN(Cc3cnn(C)c3)[C@@H](C)C2)O1` (single isomer, unassigned) [Compound 528, (2′S)-2-chloro-2′,6-dimethyl-1′-[(1-methylpyrazol-4-yl)methyl]spiro[6,7-dihydrothieno[3,2-c]pyran-4,4′-piperidine]] and `C[C@H]1C[C@@]2(CCN1Cc1cnn(C)c1)OCC(O)(c1ccccc1)c1cc(Cl)sc12` (stereo partly drawn) [Compound 850, (2′S,7R)-2-chloro-2′-methyl-1′-[(1-methylpyrazol-4-yl)methyl]-4-phenyl-spiro[5H-thieno[2,3-c]pyran-7,4′-piperidine]-4-ol] fall in the same range of IC50: 100 to 500 nM for the first, 100 to 500 nM for the second.

Compared with `CCc1cc2c(s1)CCO[C@@]21CCN(Cc2cn(-c3cncc(O)c3)nn2)[C@@H](C)C1` [Compound 16, 5-[4-[[(2′S,4R)-2-ethyl-2′-methyl-spiro[6,7-dihydrothieno[3,2-c]pyran-4,4′-piperidine]-1′-yl]methyl]triazol-1-yl]pyridin-3-ol], `CCc1cc2c(s1)CCO[C@@]21CCN(Cc2cnn(CCO)c2)[C@@H](C)C1` [Compound 269] is lower in IC50: 100 to 500 nM for the first, under 100 nM for the second.

`C[C@H]1C[C@@]2(CCN1Cc1cnn(C3CN(S(C)(=O)=O)C3)c1)OC[C@@H](O)c1cc(C(F)(F)F)sc12` [Compound 884] and `C[C@H]1C[C@@]2(CCN1Cc1cnn(C[C@H](O)C(=O)N(C)C)c1)OC[C@@H](O)c1cc(C(F)(F)F)sc12` [Compound 998] cannot be ordered by IC50: under 100 nM for the first, under 100 nM for the second.

`CCc1cc2c(s1)CCO[C@@]21CCN(CC2CN(C(=O)Cn3cnnn3)C2)[C@@H](C)C1` [Compound 464] and `CCc1cc2c(s1)CCO[C@@]21CCN(CC2CN(C(=O)Cc3ccncn3)C2)[C@@H](C)C1` [Compound 441] cannot be ordered by IC50: under 100 nM for the first, under 100 nM for the second.

`CCc1cc2c(s1)CCO[C@@]21CCN(Cc2cn[nH]c2)[C@@H](C)C1` [Compound 265] and `CCc1cc2c(s1)CCO[C@@]21CCN(CC(O)c2ccc(F)cc2)[C@@H](C)C1` (stereo partly shown) [Compound 249] cannot be ordered by IC50: under 100 nM for the first, under 100 nM for the second.

First: Cc1cc2c(s1)C1(CCN(Cc3cn(CCS(C)(=O)=O)nn3)[C@@H](C)C1)OCC2 (stereo partly drawn) [Compound 1029, (2′S)-2,2′-dimethyl-1′-[[1-(2-methylsulfonylethyl)triazol-4-yl]methyl]spiro[4,5-dihydrothieno[2,3-c]pyran-7,4′-piperidine]]
Second: [2H]c1c(CC)sc2c1[C@]1(CCN(Cc3cn(CCS(C)(=O)=O)nn3)[C@@H](C)C1)OCC2 [Compound 527, (2′S,4R)-3-deuterio-2-ethyl-2′-methyl-1′-[[1-(2-methylsulfonylethyl)triazol-4-yl]methyl]spiro[6,7-dihydrothieno[3,2-c]pyran-4,4′-piperidine]]
The IC50 of the first is higher: 100 to 500 nM for the first, under 100 nM for the second. The second is the more potent here.

`[2H]C([2H])([2H])OC1CO[C@@]2(CCN(Cc3cnn(CCS(C)(=O)=O)c3)[C@@H](C)C2)c2sc(Cl)cc21` (stereo partly shown) [Compound 846] and `C[C@H]1C[C@@]2(CCN1Cc1cnn(CCS(C)(=O)=O)c1)OCC(O)c1cc(Cl)sc12` (single isomer, unassigned) [Compound 769] cannot be ordered by IC50: under 100 nM for the first, under 100 nM for the second.

First: C[C@H]1C[C@@]2(CCN1Cc1cnn(CC(O)CC3(C#N)CC3)c1)OC[C@@H](O)c1cc(C(F)(F)F)sc12 (stereo partly shown) [Compound 973]
Second: COc1ncc(CN2CC[C@]3(C[C@@H]2C)OC[C@H](O)c2cc(Cl)sc23)cn1 [Compound 807]
The IC50 of the first is lower: under 100 nM for the first, 100 to 500 nM for the second.

First: C[C@H]1C[C@@]2(CCN1Cc1cnn(C)c1)OCCc1cc(CO)sc12 [Compound 1018, [(2′S, 7R)-2′-methyl-1′-[(1-methylpyrazol-4-yl)methyl]spiro[4,5-dihydrothieno[2,3-c]pyran-7,4′-piperidine]-2-yl]methanol]
Second: Cc1cc2c(s1)[C@]1(CCN(Cc3cnn(CC(C)(CO)CO)c3)[C@@H](C)C1)OCC2 [Compound 1028, 2-[[4-[[(2′S, 7R)-2,2′-dimethylspiro[4,5-dihydrothieno[2,3-c]pyran-7,4′-piperidine]-1′-yl]methyl]pyrazol-1-yl]methyl]-2-methyl-propane-1,3-diol]
The IC50 of the first is higher: 100 to 500 nM for the first, under 100 nM for the second. The second is the more potent here.

Compared with `C[C@H]1C[C@@]2(CCN1Cc1cn(CCCS(C)(=O)=O)nn1)OCCc1c2sc(C(F)(F)F)c1CO` [Compound 1001], `C[C@H]1C[C@@]2(CCN1Cc1cnn(C3CCS(=O)(=O)C3)c1)OCCc1c2sc(C(F)(F)F)c1CO` (stereo partly drawn) [Compound 911, [(2′S, 7R)-1′-[[1-(1,1-dioxothiolan-3-yl)pyrazol-4-yl]methyl]-2′-methyl-2-(trifluoromethyl)spiro[4,5-dihydrothieno[2,3-c]pyran-7,4′-piperidine]-3-yl]methanol] is lower in IC50: 100 to 500 nM for the first, under 100 nM for the second.

First: C[C@H]1C[C@@]2(CCN1Cc1ncn3ccccc13)OCCc1cc(Cl)sc12 [Compound 686]
Second: C[C@H]1C[C@@]2(CCN1Cc1ccncc1)OCCc1cc(Cl)sc12 [Compound 645]
The IC50 of the first is higher: 500 to 1000 nM for the first, 100 to 500 nM for the second. The second is the more potent here.

First: CCc1cc2c(s1)CCO[C@@]21CCN(CC2CN(C(=O)CN3CCS(=O)(=O)CC3)C2)[C@@H](C)C1 [Compound 445]
Second: CCc1cc2c(s1)CCO[C@@]21CCN(CC2CN(S(=O)(=O)c3c[nH]cn3)C2)[C@@H](C)C1 [Compound 496]
The IC50 of the first is lower: under 100 nM for the first, 500 to 1000 nM for the second. The first is the more potent here.

`C[C@H]1C[C@@]2(CCN1Cc1cccc(OCCO)c1)OCCc1c2sc(Cl)c1CO` [Compound 725] and `CCn1cc(CN2CC[C@]3(C[C@@H]2C)OCCc2c3sc(Cl)c2CO)cn1` [Compound 760] fall in the same range of IC50: 100 to 500 nM for the first, 100 to 500 nM for the second.

`CNS(=O)(=O)CCn1cc(CN2CCC3(CC2)OCC(C)(C)c2sc(Cl)cc23)cn1` [Compound 1177, 2-[4-[(2-chloro-7,7-dimethyl-spiro[6H-thieno[3,2-c]pyran-4,4′-piperidine]-1′-yl)methyl]pyrazol-1-yl]-N-methyl-ethanesulfonamide] and `C[C@H]1C[C@@]2(CCN1Cc1cnn(CCS(C)(=O)=O)c1)OC[C@](O)(C(F)F)c1cc(Cl)sc12` [Compound 827, (2′S,4S,7R)-2-chloro-4-(difluoromethyl)-2′-methyl-1′-[[1-(2-methylsulfonylethyl)pyrazol-4-yl]methyl]spiro[5H-thieno[2,3-c]pyran-7,4′-piperidine]-4-ol] cannot be ordered by IC50: under 100 nM for the first, under 100 nM for the second.

`CCc1cc2c(s1)CCO[C@@]21CCN(C[C@H]2C[C@@H](NC(=O)c3cc(C)no3)C2)[C@@H](C)C1` [Compound 304] and `CCc1cc2c(s1)CCO[C@@]21CCN(C[C@H]2C[C@@H](NC(=O)C3CC3c3ccc(F)cc3)C2)[C@@H](C)C1` (stereo partly shown) [Compound 323] cannot be ordered by IC50: under 100 nM for the first, under 100 nM for the second.

`CCc1cc2c(s1)CCOC21CCN(Cc2cn(C)nn2)CC1` [Compound 1158] and `CCc1cc2c(s1)CCOC21CCN(Cc2csc(N3CCOCC3)n2)CC1` [Compound 1146] fall in the same range of IC50: 500 to 1000 nM for the first, 500 to 1000 nM for the second.

`CCc1cc2c(s1)CCO[C@@]21CCN(Cc2cnc(N[C@@H]3CCCC[C@H]3O)nc2)[C@@H](C)C1` [Compound 223] and `C[C@H]1C[C@@]2(CCN1C1COCC1O)OCCc1cc(CC(F)F)sc12` (stereo partly shown) [Compound 609] cannot be ordered by IC50: under 100 nM for the first, under 100 nM for the second.
